{"source": "patent US20240374601A1", "about": "“METHODS AND COMPOSITIONS FOR TREATING CANCER” (Onconova Therapeutics, Inc., priority 2021, published 2024)", "key": {"breast cancer cells": {"system": "breast cancer cells", "experiment": "Growth of cancer cell lines resistant to Comparator-1", "format": "cell-based", "conditions": "breast cancer cells resistant to Comparator-1"}, "[1]": {"experiment": "Myelosuppression and neutropenia in preclinical models", "conditions": "in comparison to Comparator-1"}, "Neutropenia, FIG. 2": {"experiment": "Neutropenia, FIG. 2", "format": "cell-based", "conditions": "ovarian cancer cell line; compared to Comparator 1"}, "prostate cancer cells": {"system": "prostate cancer cells", "experiment": "Growth of cancer cell lines resistant to Comparator-1", "format": "cell-based", "conditions": "prostate cancer cells resistant to Comparator-1"}, "ovarian cancer cells": {"system": "ovarian cancer cells", "experiment": "Growth of ovarian cancer cell lines", "format": "cell-based"}}, "data": [{"compound": "CN1CCN(c2ccc(Nc3ncc4cc(C#N)c(=O)n(C5CCCC5)c4n3)cc2)CC1", "note": "[Compound 1, 8-cyclopentyl-2-((4-(4-methylpiperazin-1-yl)phenyl)amino)-7-oxo-7,8-dihydropyrido[2,3-d]pyrimidine-6-carbonitrile]", "values": [{"measurement": "growth of cancer cell lines", "setting": "breast cancer cells", "result": "inhibited growth"}, {"measurement": "myelosuppression", "setting": "[1]", "result": "less myelosuppression"}, {"measurement": "neutropenia", "setting": "[1]", "result": "less neutropenia"}, {"measurement": "neutropenia (FIG. 2)", "setting": "Neutropenia, FIG. 2", "result": "reduced neutropenia"}, {"measurement": "growth of cancer cell lines", "setting": "prostate cancer cells", "result": "inhibited growth"}, {"measurement": "inhibition of ovarian cancer cell line growth (FIG. 3)", "setting": "ovarian cancer cells; compared to Comparator 1", "result": "higher inhibition"}, {"measurement": "growth of cancer cell lines", "setting": "ovarian cancer cells; ovarian cancer cells resistant to Comparator-1", "result": "inhibited growth"}]}]}
